50 compounds from US4343812A, “Antidepressant 2-amino-and-2-(substituted amino)-cis-hexahydro-carbazoles, compositions and use” (E. I. Du Pont de Nemours and Company, priority 1980, dated 1982) can be followed below.

Where a name gives a salt, the structure may show the parent alone. Read-outs that look alike come from different tables or passages of the source.

Broadly, the ED50 is the dose at which the effect has come halfway, by size or by number of responders.

The subject of this assay is tetrabenazine-induced sedation and depression in mice. The assay can be described thus: Antagonism of tetrabenazine-induced depression in mice (prevention of ptosis and exploratory loss), orally at 1 hour post-drug. As to conditions: Mus musculus, oral, tetrabenazine 32 mg/kg intraperitoneally 30 minutes after drug. It counts as in vivo, mice (Carworth CF1 S female). Here is the method:
(Everett, "The Dopa Response Potentiation Test and Its Use in Screening for Antidepressant Drugs", pp. 164-167 in "Antidepressant Drugs" [Proceedings of the First International Symposium], S. Garattini and M. N. G. Dukes, eds., 1967). Groups of 10 Carworth CF1 S female mice, 18-21 g each, were fasted 1.5 hours and were intubated with antagonist compounds at oral doses of 0, 5, 25, and 125 mg/kg or 0, 1, 3, 9, 27, and 81 mg/kg in 0.20 ml of 1% Methocel (methylcellulose). The mice were challenged 30 minutes later with tetrabenazine (as the methane-sulfonate), 32 mg/kg intraperitoneally (dissolved in 0.20 ml 0.05 M KCl at pH 2.0). One hour after antagonist (30 minutes after tetrabenazine), the mice were examined for signs of exploratory activity and ptosis (eyelid closure). Normal exploratory activity (relief from sedation) was recorded when a mouse lifted by the tail from a group of 10 in a testing box and placed on a stainless steel testing box lid (12.5"×8" with 0.33" mesh) either turned its head horizontally 30° in both directions or moved to the edge of the screen within 10 seconds after being placed on the screen. Relief from ptosis was recorded when exactly two seconds after placing the mouse facing the observer, lid closure was less than 50% in both eyes. For comparison, the marketed antidepressant amitriptylene was also tested, and an ED50 (effective dose in 50% of the cases) was determined. The lower the ED50, the better the antidepressant.

Where [1] appears, read: read-out: ED50 For Prevention of Exploratory Loss.
[2] abbreviates: read-out: ED50 For Prevention of Ptosis.

Regarding `CC(=O)NC1CC[C@@H]2c3cc(F)ccc3N[C@@H]2C1` (stereo partly shown) [Compound 1b], the ED50 worked out at 4.2 mg/kg under setting [1] and 2.7 mg/kg under setting [2].

On to `CCCCCCOc1ccc2c(c1)N[C@@H]1CC(NC(C)=O)CC[C@H]21` (stereo partly shown) [Compound 1m], for which the ED50 under setting [1] is 27 mg/kg and the ED50 under setting [2] was found to be 27 mg/kg.

As to `CCCOc1ccc2c(c1)N[C@@H]1CC(NC(C)=O)CC[C@H]21` (stereo partly shown) [Compound 1j], the ED50 is, setting by setting: under setting [1], 0.99 mg/kg; under setting [2], 0.79 mg/kg.

In the case of `CC(=O)NC1CCc2c([nH]c3ccc(F)cc23)C1` (stereo not shown) [Compound 2b, N-(6-fluoro-1,3,4,9-tetrahydro-2H-carbazol-2-yl)acetamide], the ED50 is, setting by setting: under setting [1], 2.4 mg/kg; under setting [2], 0.7 mg/kg.

With `CCCCC(=O)NC1CCc2c([nH]c3ccccc23)C1` (stereo not shown) [Compound 3d], the ED50 is > 81 mg/kg under setting [1] and > 81 mg/kg under setting [2].

With `CCOc1ccc2c3c([nH]c2c1)CC(NC(C)=O)CC3` (stereo not shown) [Compound 2L, N-(7-ethoxy-1,3,4,9-tetrahydro-2H-carbazol-2-yl)acetamide], the ED50 was 2 mg/kg under setting [1] and 2 mg/kg under setting [2].

Consider `CC(=O)NC1CC[C@@H]2c3cc(C)ccc3N[C@@H]2C1` (stereo partly shown) [Compound 1e], for which the ED50 under setting [1] amounted to 34 mg/kg and the ED50 under setting [2] was found to be 16 mg/kg.

Regarding `CNC1CCc2c([nH]c3ccccc23)C1.Cl` (stereo not shown) [Compound 3j, 2,3,4,9-Tetrahydro-N-methyl-1H-carbazol-2-amine hydrochloride], the ED50 runs as follows: under setting [1], 32 mg/kg; under setting [2], 12 mg/kg.

`CCN1c2ccccc2[C@H]2CCC(NC(C)=O)C[C@H]21` (stereo partly drawn) [Compound 1y, N-(cis-9-ethyl-1,3,4,4a,9,9a-hexahydro-2H-carbazol-2-yl) acetamide]: the ED50 under setting [1] came to 5.2 mg/kg and the ED50 under setting [2] is 4.7 mg/kg.

Take `CCNC1CCC2c3ccccc3NC2C1` (stereo not shown) [Compound 1w]: the ED50 under setting [1] was 96 mg/kg and the ED50 under setting [2] was 68 mg/kg.

For `CCCOc1ccc2c3c([nH]c2c1)CC(NC(C)=O)CC3` (stereo not shown) [Compound 2m], the ED50 under setting [1] was 0.6 mg/kg and the ED50 under setting [2] was determined as 0.6 mg/kg.

With `CCOC(=O)N(C)C1CCc2c([nH]c3ccccc23)C1` (stereo not shown) [Compound 3g, Methyl(1,3,4,9-tetrahydro-2H-carbazol-2-yl)carbamic acid, ethyl ester], the ED50 is, setting by setting: under setting [1], 27 mg/kg; under setting [2], 7.8 mg/kg.

Turning to `CC(=O)NC1CCc2c([nH]c3ccc(Br)cc23)C1` (stereo not shown) [Compound 2d, N-(6-bromo-1,3,4,9-tetrahydro-2H-carbazol-2-yl)acetamide], the ED50 runs as follows: under setting [1], 17.4 mg/kg; under setting [2], 10 mg/kg.

For the compound `CN(C)C1CCc2c([nH]c3ccccc23)C1` (stereo not shown) [Compound 3k], the ED50 under setting [1] was 39 mg/kg and the ED50 under setting [2] turned out to be 11.4 mg/kg.

On to `COc1ccc2[nH]c3c(c2c1)CCC(NC(C)=O)C3` (stereo not shown) [Compound 2h, N-(1,3,4,9-tetrahydro-6-methoxy-2H-carbazol-2-yl)acetamide], for which the ED50 is, setting by setting: under setting [1], 6.5 mg/kg; under setting [2], 5.8 mg/kg.

For `COc1ccc2c(c1)NC1CC(NC(C)=O)CCC21` (stereo not shown) [Compound 1h], the 50% effective dose (ED50) reads like this: under setting [1], 4.2 mg/kg; under setting [2], 2.2 mg/kg.

Take `CC(=O)NC1CC[C@@H]2c3cc(Br)ccc3N[C@@H]2C1` (stereo partly shown) [Compound 1d]: the ED50 reads like this: under setting [1], 3.3 mg/kg; under setting [2], 2.1 mg/kg.

For `CC(=O)NC1CCc2c([nH]c3cc(O)ccc23)C1` (stereo not shown) [Compound 2k, N-(1,3,4,9-tetrahydro-7-hydroxy-2H-carbazol-2-yl)acetamide], the ED50 reads like this: under setting [1], > 125 mg/kg; under setting [2], > 125 mg/kg.

Regarding `NC1CCC2c3ccccc3NC2C1` (stereo not shown) [Compound 1u], the ED50 by setting is: under setting [1], 0.75 mg/kg; under setting [2], 0.57 mg/kg.

As to `CC(=O)NC1CCc2c(n(C)c3ccccc23)C1` (stereo not shown) [Compound 3L, N-(1,3,4,9-tetrahydro-9-methyl-2H-carbazol-2-yl)acetamide], the ED50 by setting is: under setting [1], 11.2 mg/kg; under setting [2], 9 mg/kg.

As to `CC(=O)NC1CCC2c3ccc(OCc4ccccc4)cc3NC2C1` (stereo not shown) [Compound 1n], the ED50 reads like this: under setting [1], 7.2 mg/kg; under setting [2], 6.5 mg/kg.

Regarding `CC(=O)NC1CC[C@@H]2c3cc(Cl)ccc3N[C@@H]2C1` (stereo partly shown) [Compound 1c], the ED50 turned out to be 14 mg/kg under setting [1] and 3.3 mg/kg under setting [2].

Turning to `CC(=O)NC1CCc2c([nH]c3cc(OCc4ccccc4)ccc23)C1` (stereo not shown) [Compound 2p], the ED50 under setting [1] amounted to 6.5 mg/kg and the ED50 under setting [2] was found to be 6.5 mg/kg.

Turning to `CC(=O)N(C)C1CCc2c([nH]c3ccccc23)C1` (stereo not shown) [Compound 3h, N-(1,3,4,9-tetrahydro-2H-carbazol-2-yl)-N-methylacetamide], the ED50 is, setting by setting: under setting [1], > 125 mg/kg; under setting [2], > 125 mg/kg.

As for `O=CNC1CCc2c([nH]c3ccccc23)C1` (stereo not shown) [Compound 3b, N-(1,3,4,9-tetrahydro-2H-carbazol-2-yl)formamide], the ED50 is > 125 mg/kg under setting [1] and 84 mg/kg under setting [2].

As for `CC(=O)NC1CCc2c([nH]c3c(F)cccc23)C1` (stereo not shown) [Compound 2e], the ED50 came out at 19.7 mg/kg under setting [1] and 14 mg/kg under setting [2].

As for `CC(=O)NC1CCc2c([nH]c3ccc(C)cc23)C1` (stereo not shown) [Compound 2g], the ED50 is 7.2 mg/kg under setting [1] and 3 mg/kg under setting [2].

On to `CCCCOc1ccc2c3c([nH]c2c1)CC(NC(C)=O)CC3` (stereo not shown) [Compound 2j, N-(7-n-butyloxy-1,3,4,9-tetrahydro-2H-carbazol-2-yl)acetamide], for which the ED50 is, setting by setting: under setting [1], 0.57 mg/kg; under setting [2], 0.51 mg/kg.

For the compound `COc1ccc2c3c([nH]c2c1)CC(NC(C)=O)CC3` (stereo not shown) [Compound 2i, N-(1,3,4,9-tetrahydro-7-methoxy-2H-carbazol-2-yl)acetamide], the ED50 came to 0.9 mg/kg under setting [1] and 0.8 mg/kg under setting [2].

For the compound `CC(=O)NC1CCc2c([nH]c3ccccc23)C1` (stereo not shown) [Compound 2a, N-(1,3,4,9-tetrahydro-2H-carbazol-2-yl)acetamide], the ED50 under setting [1] was 2.4 mg/kg and the ED50 under setting [2] was found to be 1.1 mg/kg.

In the case of `CCOC(=O)NC1CCC2c3ccccc3NC2C1` (stereo not shown) [Compound 1s], the ED50 is, setting by setting: under setting [1], 4 mg/kg; under setting [2], 4 mg/kg.

`CCCCCOc1ccc2c3c([nH]c2c1)CC(NC(C)=O)CC3` (stereo not shown) [Compound 2n]: the ED50 came to 4.3 mg/kg under setting [1] and 2.7 mg/kg under setting [2].

`CCCCCOc1ccc2c(c1)N[C@@H]1CC(NC(C)=O)CC[C@H]21` (stereo partly shown) [Compound 1L]: the ED50 under setting [1] turned out to be 2 mg/kg and the ED50 under setting [2] is 2 mg/kg.

Consider `CCCCOc1ccc2c(c1)N[C@@H]1CC(NC(C)=O)CC[C@H]21` (stereo partly shown) [Compound 1k], for which the ED50 is, setting by setting: under setting [1], 0.35 mg/kg; under setting [2], 0.22 mg/kg.

Regarding `CC(=O)NC1CC[C@@H]2c3ccccc3N[C@@H]2C1` (stereo partly drawn) [Compound 1a, N-(cis-1,3,4,4a,9,9a-hexahydro-2H-carbazol-2-yl)acetamide hydrochloride], the ED50 under setting [1] amounted to 2.3 mg/kg and the ED50 under setting [2] stood at 0.7 mg/kg.

For the compound `CCOc1ccc2c(c1)N[C@@H]1CC(NC(C)=O)CC[C@H]21` (stereo partly shown) [Compound 1i], the ED50 under setting [1] is 12.7 mg/kg and the ED50 under setting [2] was 8.9 mg/kg.

Regarding `CC(=O)NC1CC[C@@H]2c3ccccc3N(C)[C@@H]2C1` (stereo partly drawn) [Compound 1o, N -(cis-1,3,4,4a,9,9a-hexahydro-9-methyl-2H-carbazol-2-yl)acetamide], the ED50 reads like this: under setting [1], 27 mg/kg; under setting [2], 3.7 mg/kg.

In the case of `COc1ccc2c(c1)[C@H]1CCC(NC(C)=O)C[C@H]1N2` (stereo partly shown) [Compound 1f], the ED50 under setting [1] is 27 mg/kg and the ED50 under setting [2] was found to be 27 mg/kg.

Consider `CNC1CCC2c3ccccc3NC2C1` (stereo not shown) [Compound 1v], for which the ED50 reads like this: under setting [1], 3 mg/kg; under setting [2], 2.4 mg/kg.

Turning to `CC(=O)NC1CC[C@@H]2c3ccc(O)cc3N[C@@H]2C1` (stereo partly shown) [Compound 1g], the ED50 runs as follows: under setting [1], 15.6 mg/kg; under setting [2], 8.1 mg/kg.

Take `COC(=O)NC1CCC2c3ccccc3NC2C1` (stereo not shown) [Compound 1t]: the ED50 runs as follows: under setting [1], 9.7 mg/kg; under setting [2], 5.2 mg/kg.

Turning to `O=CNC1CCC2c3ccccc3NC2C1` (stereo not shown) [Compound 1p], the ED50 is, setting by setting: under setting [1], 21 mg/kg; under setting [2], 21 mg/kg.

Turning to `COC(=O)NC1CCc2c([nH]c3ccccc23)C1` (stereo not shown) [Compound 3f], the ED50 reads like this: under setting [1], > 81 mg/kg; under setting [2], > 81 mg/kg.

Consider `CN(C)CCC=C1c2ccccc2CCc2ccccc21` [amitriptyline, reference compound], for which the ED50 under setting [1] stood at 2.6 mg/kg and the ED50 under setting [2] stood at 1.2 mg/kg.

`CN(C)C1CCC2c3ccccc3NC2C1` (stereo not shown) [Compound 1x]: the ED50 runs as follows: under setting [1], 41 mg/kg; under setting [2], 37 mg/kg.

As for `CCCCC(=O)NC1CCC2c3ccccc3NC2C1` (stereo not shown) [Compound 1r], the ED50 by setting is: under setting [1], 7.5 mg/kg; under setting [2], 6.5 mg/kg.

Turning to `CCCCCCOc1ccc2c3c([nH]c2c1)CC(NC(C)=O)CC3` (stereo not shown) [Compound 2o], the ED50 was determined as 12 mg/kg under setting [1] and 14 mg/kg under setting [2].

Consider `CCC(=O)NC1CCc2c([nH]c3ccccc23)C1` (stereo not shown) [Compound 3c, N-(1,3,4,9-tetrahydro-2H-carbazol-2-yl)propanamide], for which the ED50 was > 81 mg/kg under setting [1] and 67 mg/kg under setting [2].

For the compound `CCC(=O)NC1CCC2c3ccccc3NC2C1` (stereo not shown) [Compound 1q], the ED50 amounted to 18 mg/kg under setting [1] and 1.7 mg/kg under setting [2].

As to `CCNC1CCc2c([nH]c3ccccc23)C1.Cl` (stereo not shown) [Compound 3i, N-ethyl-2,3,4,9-tetrahydro-1H-carbazol-2-amine hydrochloride], the ED50 under setting [1] is 27 mg/kg and the ED50 under setting [2] amounted to 27 mg/kg.
